Measured values reported in US4473557A, “3"-Deoxystreptomycin production thereof and pharmaceutical compositions containing same” (Zaidan Hojin Biseibutsu Kagaku Kenkyu Kai, priority 1982, dated 1984).
Values after ≈ are worked out from the molar mass of the structure shown. Read-outs that look alike come from different tables or passages of the source.

Experiments:
[1] = tested on: resistant bacteria; details: Kokai No. 105154/77; Journal of Antibiotics Vol. 29, 978 (1976); cited from earlier work
[2] = tested on: Escherichia coli C600 R135; test: Minimum inhibitory concentration, serial dilution on nutrient agar; assay type: cell-based; details: C600R135, 17 h
Excerpt: (§1) Minimum inhibitory concentrations (mcg/ml) of streptomycin and of the parent 3"-deoxydihydrostreptomycin were also estimated in the same manner as above for the comparison purpose and are shown in Table 1 below.

[3] = tested on: Pseudomonas aeruginosa No. 12; test: as above; assay type: cell-based
Excerpt: as §1

[4] = tested on: Escherichia coli ML 1629; test: as above; assay type: cell-based
Excerpt: as §1

[5] = tested on: Sarcia lutea 1001; test: as above; assay type: cell-based; details: 17 h
Excerpt: as §1

[6] = tested on: Mycobacterium smegmatis 607; test: as above; assay type: cell-based
Excerpt: as §1

[7] = tested on: Bacillus subtilis NRRL B558; test: as above; assay type: cell-based
Excerpt: as §1

[8] = tested on: Escherichia coli W 677; test: as above; assay type: cell-based
Excerpt: as §1

[9] = tested on: Staphylococcus aureus 209 P; test: as above; assay type: cell-based
Excerpt: as §1

[10] = tested on: Pseudomonas aeruginosa A3; test: as above; assay type: cell-based
Excerpt: as §1

[11] = tested on: Escherichra coli ML 1630; test: as above; assay type: cell-based; details: 37° C., 17 hours
Excerpt: as §1

[12] = tested on: Escherichia coli K-12; test: as above; assay type: cell-based
Excerpt: as §1

[13] = tested on: Salmonella typhi T-63; test: as above; assay type: cell-based; details: Salmonella enterica, 17 h
Excerpt: as §1

[14] = tested on: Escherichia coli JR66/W677; test: as above; assay type: cell-based; details: 37° C., 17 hours
Excerpt: as §1

[15] = tested on: ICR mice; test: Acute toxicity by intravenous injection in mice; details: dosage of 4 mg/kg (so in the source)
[16] = tested on: streptomycin-resistant bacteria; test: Activity against streptomycin-resistant bacteria; assay type: cell-based; details: variety of streptomycin-resistant bacteria
Excerpt: as §1

[17] = in vivo; details: mouse, iv
[18] = Pseudomonas aeruginosa No. 12, nutrient agar, 37° C., 17 hours, read-out: MIC.
[19] = Mycolicibacterium smegmatis, Mycobacterium smegmatis 607, nutrient agar, 37° C., 17 hours, read-out: MIC.
[20] = NRRLB558, Bacillus subtilis NRRL B558, nutrient agar, 37° C., 17 hours, read-out: MIC.
[21] = W677, Escherichia coli W 677, nutrient agar, 37° C., 17 hours, read-out: MIC.
[22] = Staphylococcus aureus, 209P, 17 h
[23] = Pseudomonas aeruginosa A3, nutrient agar, 37° C., 17 hours, read-out: MIC.
[24] = K12, Escherichia coli K-12, nutrient agar, 37° C., 17 hours, read-out: MIC.

| Structure (SMILES) | MIC [2] | MIC [3, 18] | MIC ([4]; Escherichia coli, ML1629, 17 h) | MIC [5] | MIC [6, 19] | MIC [7, 20] | MIC [8, 21] | MIC [9, 22] | MIC [10, 23] | MIC [11] | MIC [12, 24] | MIC [13] | MIC [14] | also measured |
| --- | --- | --- | --- | --- | --- | --- | --- | --- | --- | --- | --- | --- | --- | --- |
| CNC1CC(O)C(CO)OC1OC1C(OC2C(O)C(O)C(NC(=N)N)C(O)C2NC(=N)N)OC(C)C1(O)CO (stereo not shown) [3"-Deoxydihydrostreptomycin, 3"-deoxydihydrostreptomycin] | 3.12 µg/mL (≈ 5.5 µM) | 25 µg/mL (≈ 44 µM) | 3.12 µg/mL (≈ 5.5 µM) | 3.12 µg/mL (≈ 5.5 µM) | 0.78 µg/mL (≈ 1.37 µM) | 1.56 µg/mL (≈ 2.75 µM) | 1.56 µg/mL (≈ 2.75 µM) | 3.12 µg/mL (≈ 5.5 µM) | 12.5 µg/mL (≈ 22 µM) | 1.56 µg/mL (≈ 2.75 µM) | 1.56 µg/mL (≈ 2.75 µM) | 3.12 µg/mL (≈ 5.5 µM) | 12.5 µg/mL (≈ 22 µM) | activity against the resistant bacteria [1]: active against the resistant bacteria |
| CNC1CC(O)C(CO)OC1OC1C(OC2C(O)C(O)C(NC(=N)N)C(O)C2NC(=N)N)OC(C)C1(O)C=O (stereo not shown) [3"-Deoxystreptomycin, 3"-deoxystreptomycin] | 3.12 µg/mL (≈ 5.52 µM) | 25 µg/mL (≈ 44.2 µM) | – | 1.56 µg/mL (≈ 2.76 µM) | 0.78 µg/mL (≈ 1.38 µM) | 1.56 µg/mL (≈ 2.76 µM) | 1.56 µg/mL (≈ 2.76 µM) | – | 6.25 µg/mL (≈ 11.1 µM) | 3.12 µg/mL (≈ 5.52 µM) | 1.56 µg/mL (≈ 2.76 µM) | 0.78 µg/mL (≈ 1.38 µM) | 12.5 µg/mL (≈ 22.1 µM) | survival for more than 14 days [15]: all the treated mice survived for more than 14 days; activity against streptomycin-resistant bacteria [16]: active against a variety of streptomycin-resistant bacteria; LD50 at 336 h [17]: > 200 mg/kg; MIC ([4]; ML1629, Escherichia coli ML 1629, nutrient agar, 37° C., 17 hours, read-out: MIC.): 1.56 µg/mL (≈ 2.76 µM); MIC ([9]; Staphylococcus aureus 209 P, nutrient agar, 37° C., 17 hours, read-out: MIC.): 3.12 µg/mL (≈ 5.52 µM) |
| [H]/N=C(/N)N[C@H]1[C@H](O)[C@@H](O)[C@H](O[C@@H]2O[C@@H](C)[C@](O)(C=O)[C@H]2O[C@@H]2O[C@@H](CO)[C@H](O)[C@@H](O)[C@@H]2NC)[C@@H](N/C(N)=N\[H])[C@@H]1O [Streptomycin, streptomycin] | 50 µg/mL (≈ 86 µM) | – | 100 µg/mL (≈ 172 µM) | 1.56 µg/mL (≈ 2.68 µM) | – | – | – | 3.12 µg/mL (≈ 5.36 µM) | – | > 100 µg/mL | – | 25 µg/mL (≈ 43 µM) | > 100 µg/mL | MIC ([3]; Pseudomonas aeruginosa, NO.12, 17 h): 25 µg/mL (≈ 43 µM); MIC ([6]; Mycolicibacterium smegmatis, 607, 17 h): 1.56 µg/mL (≈ 2.68 µM); MIC ([7]; Bacillus subtilis, NRRLB558, 17 h): 0.78 µg/mL (≈ 1.34 µM); MIC ([8]; Escherichia coli, W677, 17 h): 1.56 µg/mL (≈ 2.68 µM); MIC ([10]; Pseudomonas aeruginosa, A3, 17 h): 6.25 µg/mL (≈ 10.7 µM); MIC ([12]; Escherichia coli, K12, 17 h): 1.56 µg/mL (≈ 2.68 µM) |
